According to publication PMC9146500, “New Quinoline–Urea–Benzothiazole Hybrids as Promising Antitubercular Agents: Synthesis, In Vitro Antitubercular Activity, Cytotoxicity Studies, and In Silico ADME Profiling” (Pharmaceuticals, 2022):
In brackets after ≈: the same amount, converted by molar mass. Several values for one entry are separate records, joined by “and”; a condition that tells them apart may be missing. Equal values may be shown once. Read-outs that look alike come from different tables or passages of the source.

Experiments:
[1] = tested on: Mycobacterium tuberculosis H37Rv pMSp12::GFP; assay: microbe, parasite or virus in culture; format: cell-based; conditions: Mtb H37Rv, protein-rich media, 7 days, read-out: MIC90 7H9/ADC/GLU/Tw 7 Days
[2] = MTT cytotoxicity assay; conditions: human; for IC20 at 24 h: IC20, HepG2, 24 h, MTT, concentration at which cells retain 80% viability, extrapolated from the dose–response curve
[3] = tested on: Mycobacterium tuberculosis H37Rv pMSp12::GFP; assay: microbe, parasite or virus in culture; format: cell-based; conditions: Mtb H37Rv
[4] = tested on: HepG2 cells; assay: MTT cytotoxicity assay; conditions: HepG2, 24 h, MTT; for IC20: concentration at which cells retain 80% viability, extrapolated from the dose–response curve
[5] = Mycobacterium tuberculosis, H37RV, 168 h
[6] = Mycobacterium tuberculosis, H37RV, 168 h, protein-poor media, 7 days, read-out: MIC90 7H9/CAS/GLU/Tx 7 Days
[7] = protein-poor media, 7 days, read-out: MIC90 7H9/CAS/GLU/Tx 7 Days
[8] = Mycobacterium tuberculosis, 168 h
[9] = Mycobacterium tuberculosis, 168 h, protein-poor media, 7 days, read-out: MIC90 7H9/CAS/GLU/Tx 7 Days
[10] = Mycobacterium tuberculosis, H37RV, both media (CAS and ADC) or medium not given, read-out: MIC90
[11] = both media (CAS and ADC) or medium not given

CC(CNc1ccnc2cc(Cl)ccc12)NC(=O)Nc1nc2ccc(Cl)cc2s1 (centres unmarked) [Compound 6y, 1-(1-((7-Chloroquinolin-4-yl)amino)propan-2-yl)-3-(6-chlorobenzo[d]thiazol-2-yl)urea]
MIC90 [1, 5]: 8.46 µM (≈ 3.77 µg/mL) | viability at 24 h [2]: 78% | IC20 at 24 h [2]: 2.22 µM | melting point: 301 to 304 °C | MIC90 [3, 6]: 2.33 µM (≈ 1.04 µg/mL)

O=C(NCCCCCCNc1ccnc2cc(Cl)ccc12)Nc1nc2ccc(Cl)cc2s1 [Compound 6r, 1-(6-Chlorobenzo[d]thiazol-2-yl)-3-(6-((7-chloroquinolin-4-yl)amino)hexyl)urea]
MIC90 [1, 5]: 14.6 µM (≈ 7.14 µg/mL) | viability at 24 h [2]: 72% | IC20 at 24 h [2]: 5.47 µM | melting point: 239 to 241 °C | MIC90 [3, 6]: 7.6 µM (≈ 3.71 µg/mL)

O=C(NCCCCNc1ccnc2cc(Cl)ccc12)Nc1nc2ccc(Br)cc2s1 [Compound 6p]
IC20 [4]: 2.13 µM | MIC90 cell viability ([4]; viability at the compound's MIC90 in the CAS assay, extrapolated from the curve): 56% | MIC90 [3, 7]: 7.812 µM (≈ 3.94 µg/mL)

O=C(NNc1ccnc2cc(Cl)ccc12)Nc1nc2ccccc2s1 [Compound 6a, N-(Benzo[d]thiazol-2yl)-2-(7-chloroquinolin-4-yl)hydrazine-1-carboxamide]
MIC90 [1, 5]: > 125 µM | viability at 24 h [2]: 75% | IC20 at 24 h [2]: 15.1 µM | MIC90 [3, 7]: 21.001 µM (≈ 7.77 µg/mL) | MIC90 [3, 6]: 21 µM (≈ 7.77 µg/mL)

NC(N)=O [Urea]
MIC90 [1]: >125 µM | MIC90 [3, 7]: >125 µM

Cc1ccc2nc(NC(=O)NCCCNc3ccnc4cc(Cl)ccc34)sc2c1 [Compound 6k, 1-(3-((7-Chloroquinolin-4-yl)amino)propyl)-3-(6-methylbenzo[d]thiazol-2-yl)urea]
MIC90 [1, 5]: 62.3 µM (≈ 26.5 µg/mL) | viability at 24 h [2]: 93% | IC20 at 24 h [2]: 42.7 µM | melting point: 234 to 239 °C | MIC90 [3, 6]: 31.2 µM (≈ 13.3 µg/mL)

NCCCCCCNc1ccnc2cc(Cl)ccc12 [Compound 2e]
MIC90 [1, 5]: > 125 µM | MIC90 [3, 6]: > 125 µM

O=C(NCCNc1ccnc2cc(Cl)ccc12)Nc1nc2ccc(Cl)cc2s1 [Compound 6f, 1-(6-Chlorobenzo[d]thiazol-2-yl)-3-(2-((7-chloroquinolin-4-yl)amino)ethyl)urea]
MIC90 [1, 5]: > 125 µM | melting point: 244 to 245 °C | MIC90 [3, 6]: 125 µM (≈ 54 µg/mL)

CC(CNc1ccnc2cc(Cl)ccc12)NC(=O)Nc1nc2ccc(Br)cc2s1 (centres unmarked) [Compound 6w, 1-(1-((7-Chloroquinolin-4-yl)amino)propan-2-yl)-3-(6-bromobenzo[d]thiazol-2-yl)urea]
MIC90 [1, 5]: 14 µM (≈ 6.87 µg/mL) | viability at 24 h [2]: 19% | IC20 at 24 h [2]: 3.38 µM | melting point: 246 to 248 °C | MIC90 [3, 6]: 8.19 µM (≈ 4.02 µg/mL)

O=C(Nc1nc2ccc(F)cc2s1)n1ccnc1 [Compound 5b]
MIC90 [1, 5]: > 125 µM | MIC90 [3, 6]: > 125 µM

O=C(NCCNc1ccnc2cc(Cl)ccc12)Nc1nc2ccc(Br)cc2s1 [Compound 6g, 1-(6-Bromobenzo[d]thiazol-2-yl)-3-(2-((7-chloroquinolin-4-yl)amino)ethyl)urea]
MIC [1, 8]: 14.9 µM (≈ 7.1 µg/mL) | IC20 [4]: 4.26 µM | viability at 24 h [2]: 48% | IC20 at 24 h [2]: 7.47 µM | MIC [3, 9]: 8.89 µM (≈ 4.24 µg/mL) | MIC90 [3, 10]: 8.89 to 14.9 µM (≈ 4.24 to 7.1 µg/mL)

O=C(NNc1ccnc2cc(Cl)ccc12)Nc1nc2ccc(C(F)(F)F)cc2s1 [Compound 6b, 2-(7-Chloroquinolin-4-yl)-N-(6-(trifluoromethyl)benzo[d]thiazol-2-yl)hydrazine-1-carboxamide]
MIC90 [1, 5]: 6.85 µM (≈ 3 µg/mL) | MIC90 [3, 11]: excellent activity in both media | MIC90 [3, 6]: 4.94 µM (≈ 2.16 µg/mL)

O=C(NNc1ccnc2cc(Cl)ccc12)Nc1nc2ccc([N+](=O)[O-])cc2s1 [Compound 6d, 2-(7-Chloroquinolin-4-yl)-N-(6-nitrobenzo[d]thiazol-2-yl)hydrazine-1-carboxamide]
MIC90 [1, 5]: > 125 µM | MIC90 [3, 6]: > 125 µM

O=C(NCCNc1ccnc2cc(Cl)ccc12)Nc1nc2ccc(C(F)(F)F)cc2s1 [Compound 6e, 1-(2-((7-Chloroquinolin-4-yl)amino)ethyl)-3-(6-(trifluoromethyl)benzo[d]thiazol-2-yl)urea]
melting point: 249 to 251 °C

O=C(NCCCNc1ccnc2cc(Cl)ccc12)Nc1nc2ccc(Cl)cc2s1 [Compound 6j, 1-(6-Chlorobenzo[d]thiazol-2-yl)-3-(3-((7-chloroquinolin-4-yl)amino)propyl)urea]
MIC90 [1, 5]: 11.7 µM (≈ 5.24 µg/mL) | viability at 24 h [2]: 86% | IC20 at 24 h [2]: 26.3 µM | melting point: 286 to 288 °C | MIC90 [3, 7]: 4.389 µM (≈ 1.96 µg/mL) | MIC90 [3, 6]: 4.39 µM (≈ 1.96 µg/mL)

CC(CNc1ccnc2cc(Cl)ccc12)NC(=O)Nc1nc2ccc(F)cc2s1 (centres unmarked) [Compound 6v, 1-(1-((7-Chloroquinolin-4-yl)amino)propan-2-yl)-3-(6-fluorobenzo[d]thiazol-2-yl)urea]
MIC90 [1, 5]: > 125 µM | melting point: 228 to 230 °C | MIC90 [3, 6]: > 125 µM

O=C(NNc1ccnc2cc(Cl)ccc12)Nc1nc2ccc(F)cc2s1 [Compound 6c, 2-(7-Chloroquinolin-4-yl)-N-(6-fluorobenzo[d]thiazol-2-yl)hydrazine-1-carboxamide]
MIC90 [1, 5]: > 125 µM | MIC90 [3, 6]: > 125 µM

O=C(NCCCCNc1ccnc2cc(Cl)ccc12)Nc1nc2ccc(F)cc2s1 [Compound 6q, 1-(6-Fluorobenzo[d]thiazol-2-yl)-3-(4-((7-chloroquinolin-4-yl)amino)butyl)urea]
MIC90 [1, 5]: > 125 µM | melting point: 256 to 259 °C | MIC90 [3, 11]: not active at all | MIC90 [3, 6]: > 125 µM

O=C(NCCCNc1ccnc2cc(Cl)ccc12)Nc1nc2ccc(F)cc2s1 [Compound 6n, 1-(6-Fluorobenzo[d]thiazol-2-yl)-3-(3-((7-chloroquinolin-4-yl)amino)propyl)urea]
MIC90 [1, 5]: 125 µM (≈ 53.7 µg/mL) | melting point: 241 to 243 °C | MIC90 [3, 11]: devoid of any activity | MIC90 [3, 6]: > 125 µM

CC(CNc1ccnc2cc(Cl)ccc12)NC(=O)Nc1nc2ccc(C(F)(F)F)cc2s1 (centres unmarked) [Compound 6u, 1-(1-((7-Chloroquinolin-4-yl)amino)propan-2-yl)-3-(6-(trifluoromethyl)benzo[d]thiazol-2-yl)urea]
MIC90 [1]: 5.732 µM (≈ 2.75 µg/mL) | MIC90 [1, 5]: 5.73 µM (≈ 2.75 µg/mL) | viability at 24 h [2]: 100% | IC20 at 24 h [2]: 6.01 µM | MIC90 [3, 7]: 0.968 µM (≈ 0.465 µg/mL) | MIC90 [3, 6]: 0.97 µM (≈ 0.466 µg/mL)

O=C(NCCCCCCNc1ccnc2cc(Cl)ccc12)Nc1nc2ccc(Br)cc2s1 [Compound 6s, 1-(6-Bromobenzo[d]thiazol-2-yl)-3-(6-((7-chloroquinolin-4-yl)amino)hexyl)urea]
MIC90 [1, 5]: 21 µM (≈ 11.2 µg/mL) | viability at 24 h [2]: 76% | IC20 at 24 h [2]: 7.02 µM | melting point: 192 to 194 °C | MIC90 [3, 6]: 8.76 µM (≈ 4.67 µg/mL)

O=C(NCCCNc1ccnc2cc(Cl)ccc12)Nc1nc2ccc(Br)cc2s1 [Compound 6m, 1-(6-Bromobenzo[d]thiazol-2-yl)-3-(3-((7-chloroquinolin-4-yl)amino)propyl)urea]
MIC90 [1, 5]: 16.9 µM (≈ 8.28 µg/mL) | viability at 24 h [2]: 100% | IC20 at 24 h [2]: 25.1 µM | melting point: 254 to 257 °C | MIC90 [3, 6]: 15.9 µM (≈ 7.82 µg/mL)

O=C(NCCCCCCNc1ccnc2cc(Cl)ccc12)Nc1nc2ccc(F)cc2s1 [Compound 6t, 1-(6-((7-Chloroquinolin-4-yl)amino)hexyl)-3-(6-fluorobenzo[d]thiazol-2-yl)urea]
MIC90 [1, 5]: 31.2 µM (≈ 14.7 µg/mL) | viability at 24 h [2]: 92% | IC20 at 24 h [2]: 12.9 µM | melting point: 256 to 259 °C | MIC90 [3, 6]: 6.97 µM (≈ 3.29 µg/mL) | MIC90 [3, 10]: 6.97 to 31.2 µM (≈ 3.29 to 14.7 µg/mL)

O=C(NCCNc1ccnc2cc(Cl)ccc12)Nc1nc2ccc(F)cc2s1 [Compound 6h, 1-(6-Fluorobenzo[d]thiazol-2-yl)-3-(2-((7-chloroquinolin-4-yl)amino)ethyl)urea]
MIC [1, 8]: 62.5 µM (≈ 26 µg/mL) | MIC [3, 9]: 62.5 µM (≈ 26 µg/mL) | MIC90 [3, 10]: 62.5 µM (≈ 26 µg/mL)

O=C(NCCCCNc1ccnc2cc(Cl)ccc12)Nc1nc2ccc(Cl)cc2s1 [Compound 6o, 1-(6-Chlorobenzo[d]thiazol-2-yl)-3-(4-((7-chloroquinolin-4-yl)amino)butyl)urea]
MIC90 [1, 5]: 23.5 µM (≈ 10.8 µg/mL) | viability at 24 h [2]: 30% | IC20 at 24 h [2]: 2.13 µM | melting point: 189 to 191 °C and 189.8 to 191.3 °C | MIC [3, 9]: 7.43 µM (≈ 3.42 µg/mL) | MIC90 [3, 6]: 7.46 µM (≈ 3.43 µg/mL)

CO[C@H]1/C=C/O[C@@]2(C)Oc3c(C)c(O)c4c(O)c(c(/C=N/N5CCN(C)CC5)c(O)c4c3C2=O)NC(=O)/C(C)=C\C=C\[C@H](C)[C@H](O)[C@@H](C)[C@@H](O)[C@@H](C)[C@H](OC(C)=O)[C@@H]1C [RIF, Rifampicin, reference compound]
MIC90 [1, 5]: 0.001 µM (≈ 0.000823 µg/mL) | MIC90 [3, 6]: 0.03 µM (≈ 0.0247 µg/mL)

Cc1ccc2nc(NC(=O)NC(C)CNc3ccnc4cc(Cl)ccc34)sc2c1 (centres unmarked) [Compound 6x, 1-(1-((7-Chloroquinolin-4-yl)amino)propan-2-yl)-3-(6-methylbenzo[d]thiazol-2-yl)urea]
MIC90 [1, 5]: 10.3 µM (≈ 4.41 µg/mL) | viability at 24 h [2]: 96% | IC20 at 24 h [2]: 16.2 µM | melting point: 229 to 231 °C | MIC90 [3, 6]: 7.22 µM (≈ 3.07 µg/mL)

O=C(NCCCNc1ccnc2cc(Cl)ccc12)Nc1nc2ccccc2s1 [Compound 6l, 1-(3-((7-Chloroquinolin-4-yl)amino)propyl)-3-(benzo[d]thiazol-2-yl)urea]
MIC90 [1]: 9.447 µM (≈ 3.89 µg/mL) | MIC90 [1, 5]: 9.45 µM (≈ 3.89 µg/mL) | viability at 24 h [2]: 100% | IC20 at 24 h [2]: 105 µM | MIC90 [3, 6]: 9.63 µM (≈ 3.97 µg/mL)

O=C(NCCCNc1ccnc2cc(Cl)ccc12)Nc1nc2ccc(C(F)(F)F)cc2s1 [Compound 6i, 1-(3-((7-Chloroquinolin-4-yl)amino)propyl)-3-(6-(trifluoromethyl)benzo[d]thiazol-2-yl)urea]
MIC90 [1, 5]: 12.8 µM (≈ 6.16 µg/mL) | viability at 24 h [2]: 87% | IC20 at 24 h [2]: 11.2 µM | melting point: 198 to 200 °C | MIC90 [3, 6]: 7.81 µM (≈ 3.75 µg/mL)
